From patent publication US5538993A, “Certain tetrahydrocannabinol-7-oic acid derivatives” (priority 1991, dated 1996)

Columns and labels:
[1] = previously shown; cited from earlier work
[2] = tested on: Picrotoxin induced lethality; test: Protection against picrotoxin induced lethality; format: in vivo, Balb/c male mice; conditions: drug 10 mg/kg, 120 min before picrotoxin (8 mg/kg)
Experimental: (§1) The present compounds are active in several tests generally used to indicate neuroprotection.
(§2) Balb/c male mice were administered with the drug 90 min before treatment with NMDA (125 mq/kg) or 120 min before picrotoxin (8 mg/kg) in emulsion, s.c. The survival rate shown in Table VI indicates number of survivors out of total number of animals used.

[3] = tested on: forebrain ischemia; test: Protection against forebrain ischemia (unilateral occlusion); format: in vivo; conditions: mongolian gerbils, result in words
Text: as §1

[4] = tested on: N-methyl-D-aspartate (NMDA) induced lethality; test: Protection against NMDA induced lethality; format: in vivo, Balb/c male mice; conditions: drug 10 mg/kg, 90 min before NMDA
Experimental: as §1, §2

[5] = tested on: mouse hot plate test; test: Hot plate test for antinociception (55° C.); format: in vivo; conditions: 90 min before test
Experimental: In the hot plate test for analgesia an aluminum surface was maintained at 55±1° C. by circulating water through passages in the metal. A clear plastic cylinder 18 cm in diameter and 26 cm high was placed on the surface to prevent escape. The end point was taken when the mouse either performed a hind paw lick or jumped off the surface; in no case were the animals kept for more than 30 secs on the plate. Mice were never used more than one time; control values were always measured at 11 a.m. and test values at 2 p.m. The drugs were administered orally 90 min before the hot plate test. The percent change in response time (latency) was calculated by comparing the mean of the control values with the mean of the test values and statistical signficance determined by a paired tetest analysis using software (Statview, 512) from Brainpower, Inc., Calabasas, Calif.

[6] = tested on: peritoneal leukocytes; test: Leukocyte adhesion assay (peritoneal cells after oral dosing); format: in vivo, female CD-1 mice; conditions: cells collected 90 min after dosing; for number of adhering cells: ± S.D
Experimental: Leukocytes are thought to be major contributors to the inflammatory response and their ability in this regard is reflected by their adhesiveness to a variety of substrates [Audette, C. A., et al., ibid.] Sci., 47, 753 (1990)].
The details of the leukocytes adhesion assay have been previously reported [Audette et al., ibid.]. In brief, peritoneal cells from female CD-1 mice (20-25 g) were collected at 90 min following oral administration of the drug or vehicle (50 μl peanut oil). Cells from each treatment group (N=3) were pooled and equal numbers aliquoted into six culture dish wells (1.9 cm^2 area). After incubation for 18-20 hours, non-adhering cells were removed and the remaining cell monolayer quantitated by DNA measurement.

[7] = tested on: PAF-Induced Paw Edema; test: Inhibition of PAF-induced paw edema; format: in vivo, CD-1 female mice; conditions: for Inhibition of PAF-Induced Paw Edema: vs vehicle treated controls, 15 min after PAF
Experimental: A second model, in which edema is induced by platelet activating factor (PAF), was used to evaluate activity.
(§3) The conditions were based on those reported previously [Calhoun et al., ibid.]. […] PAF (1.0 μq) or arachidonic acid (1.0 mg) dissolved in 50 μl of 5% ethanol in saline, were injected s.c. into the plantar surface of the right hind paw of CD-1 female mice (20-25 g) obtained from Charles River Labs. The mice were under ether anesthesia during this procedure. The volume of the right foot was measured to the level of the lateral malleotis by water displacement before treatment and 15 min after PAF injection or 30 min after archidonate injection. The change in paw volume was calculated for each mouse and the significance for each group was determined by a paired t test analysis.

[8] = tested on: cataleptic response; test: Cataleptic effects, ring test; format: in vivo, mouse; conditions: 5 min test period, ± SD
Experimental: The lack of CNS activity for the compounds described herein may be seen from the data shown in Table V. This was measured by the so-called "ring test" [Pertwee, R. G., et al., J. Pharmacol., 46, 753 (1972)] in which the cataleptic effects of cannabinoids can be quantitated. The compounds produced little or no response when compared with the parent drug.
The cataleptic response was measured using the ring test. Mice were placed on a horizontal wire ring 5.5 cm in diameter, which was attached to a 16 cm vertical rod. The hind paws and fore paws were placed at opposite sides of the ring. It is important that the ambient temperature is maintained at 30° C. and that the environment be free of auditory stimuli and bright lights. The criteria for immobility are detailed by Pertwee. The response is calculated as the fraction of time the mouse is immobile over a 5 min. test period. Measurements were always done between 2 and 4 p.m. and the animals were used only once.

[9] = tested on: intraocular pressure; test: Reduction of intraocular pressure (anti-glaucoma); format: in vivo, rabbits; conditions: 50 μl drop of a 1% emulsion into rabbit eye
Experimental: Reduction of intraocular pressure in rabbits was determined by the addition of a 50 μl drop of a 1% emulsion of the cannabinoid into the rabbit eye. This test is a measure of anti-glaucoma activity.

[10] = tested on: Arachidonic Acid-Induced Paw Edema; test: Inhibition of arachidonic acid-induced paw edema; format: in vivo, CD-1 female mice
Text: The induction of paw edema in rodents by injection of arachidonic acid has been used as an experimental model for inflammation [Calhoun, W., et al., Agents and Actions, 21, 306 (1987)]. Prior administration of non-steroidalanti-inflammatory drugs (NSAIDs) in many cases leads to a dose related inhibition of the edematous response which may be considered a predictor of clinical efficacy.
as §3

Compound	analgetic activity [1]	Survival rate (survivors out of total) [2]	protection against forebrain ischemia [3]	Survival rate (survivors out of total) [4]	percent change in latency ([5]; 0.25 mg/kg oral)	percent change in latency ([5]; 0.50 mg/kg oral)	percent change in latency ([5]; 1.0 mg/kg oral)	adhering cells, percent of control ([6]; 0.05 mg/kg oral)	number of adhering cells ([6]; 0.05 mg/kg oral)	adhering cells, percent of control ([6]; 0.10 mg/kg oral)	number of adhering cells ([6]; 0.10 mg/kg oral)	adhering cells, percent of control ([6]; 0.50 mg/kg oral)	number of adhering cells ([6]; 0.50 mg/kg oral)	adhering cells, percent of control ([6]; 1.00 mg/kg oral)	number of adhering cells ([6]; 1.00 mg/kg oral)	Inhibition of PAF-Induced Paw Edema ([7]; 0.5 mg/kg)	Inhibition of PAF-Induced Paw Edema ([7]; 1.0 mg/kg)	also measured
CCCCCc1cc(O)c2c(c1)OC(C)(C)[C@@H]1CCC(C(=O)O)=C[C@@H]21 [Compound 2, (3R,4R)-delta-1-tetrahydrocannabinol-7-oic acid]	analgetic																	antiinflammatory activity [1]: antiinflammatory; psychotropic effects [1]: no psychotropic effects
CCCCCCC(C)(C)c1cc(O)c2c(c1)OC(C)(C)[C@H]1CC=C(CO)C[C@H]21 [HU-211, 7-hydroxy-delta-6-tetrahydrocannabinoldimethylheptyl, reference compound]	analgetic	6/10	shown to protect against forebrain ischemia	11/16	30.0%	72.5%	-10.2%	124% of control	1.09 ± 0.08 number of adhering cells × 10^-6	50% of control	0.44 ± 0.03 number of adhering cells × 10^-6	73% of control	0.64 ± 0.06 number of adhering cells × 10^-6	67% of control	0.59 ± 0.06 number of adhering cells × 10^-6	37.5%	21.9%	anti-NMDA activity [1]: anti-NMDA; antiemetic activity [1]: entiemetic
CCCCCc1cc(O)c2c(c1)OC(C)(C)[C@@H]1CCC(C)=C[C@@H]21 [Δ^1 -THC, (3R,4R)-delta-1-tetrahydrocannabinol, reference compound]																		cataleptic response (fraction of time immobile) ([8]; 40 mg/kg): 48.9 ± 16
THC-7-oic Acid [reference compound]																		adhering cells, percent of control ([6]; 20 mg/kg oral): 90.6% of control; number of adhering cells ([6]; 20 mg/kg oral): 0.67 ± 0.02 number of adhering cells × 10^-6; adhering cells, percent of control ([6]; 40 mg/kg oral): 67.9% of control; number of adhering cells ([6]; 40 mg/kg oral): 0.55 ± 0.22 number of adhering cells × 10^-6
CCCCCc1cc(O)c2c(c1)OC(C)(C)[C@@H]1CC=C(C(=O)O)C[C@@H]21 [Δ^6 -THC-7-oic acid, reference compound]																N.S.	N.S.	Inhibition of PAF-Induced Paw Edema ([7]; 40.0 mg/kg): 50.2%
CCCCCCC(C)(C)c1cc(O)c2c(c1)OC(C)(C)[C@H]1CC=C(C(=O)O)C[C@H]21 [HU-235]		8/12	shown to protect against forebrain ischemia	7/10	61.5%	61.5%	51.7%	102% of control	1.29 ± 0.05 number of adhering cells × 10^-6	110% of control	1.38 ± 0.17 number of adhering cells × 10^-6	116% of control	1.46 ± 0.05 number of adhering cells × 10^-6	56% of control	0.70 ± 0.12 number of adhering cells × 10^-6	60.1%		cataleptic response (fraction of time immobile) ([8]; 0.25 mg/kg): 12.3 ± 10.3; cataleptic response (fraction of time immobile) ([8]; 0.5 mg/kg): 13.8 ± 7.9; cataleptic response (fraction of time immobile) ([8]; 1.0 mg/kg): 10.4 ± 10.6; cataleptic response (fraction of time immobile) ([8]; 4.0 mg/kg): 8.7 ± 5.6; reduction of intraocular pressure [9]: Significant reduction; percent change in latency ([5]; 0.02 mg/kg oral): 10.3%; percent change in latency ([5]; 0.05 mg/kg oral): 61.7%; percent change in latency ([5]; 0.10 mg/kg oral): 49.5%; percent change in latency ([5]; 2.0 mg/kg oral): 14.7%; adhering cells, percent of control ([6]; 0.01 mg/kg oral): 106% of control; number of adhering cells ([6]; 0.01 mg/kg oral): 1.34 ± 0.14 number of adhering cells × 10^-6; Inhibition of PAF-Induced Paw Edema ([7]; 0.05 mg/kg): 44.4%; Inhibition of PAF-Induced Paw Edema ([7]; 0.10 mg/kg): 38.7%; Inhibition of PAF-Induced Paw Edema ([7]; 0.25 mg/kg): 31.9%; activity in PAF-induced edema ([7]; result in words): active; Inhibition of Arachidonic Acid-Induced Paw Edema ([10]; 0.050 mg/kg, vs vehicle treated controls, 30 min after arachidonate): 42.1%; reduction of arachidonic acid paw edema ([10]; result in words): effective in reducing paw edema
